Data from US20090215752A1, “Compounds, preparation and therapeutic use thereof” (priority 2005, published 2009).
Where two headings read alike, the source gives them in different places.

Experiments:
PDE2 = target: T1, PDE2 (Homo sapiens, UniProt O00408); test: Inhibition of PDE2 (radioenzymatic phosphodiesterase assay); format: biochemical; settings: 10 μM compound, 1 μM cyclic AMP
T1 construct: PDE2 was isolated from human platelets, provided by Etablissement Français du Sang-Alsace; tissue Etablissement Français du Sang-Alsace; host or cells: human platelets
Experimental: 2.1.1. Isolation of Phosphodiesterases from Smooth Muscle A 3 g segment of bovine aortic media cut into pieces with scissors was homogenized with an ultra-turrax then a potter glass/glass homogenizer in 7 volumes by weight of buffer A containing a protease inhibitor cocktail (20 mM Tris-HCl, 0.25 M saccharose, 2 mM magnesium acetate, 1 mM dithiothreitol, 5 mM EGTA, 2000 U/ml aprotinin, 10 mg/l leupeptin and 10 mg/l soya trypsic inhibitor). The homogenizate was centrifuged at 105,000 g for 1 hour. The supernatant was loaded on a DEAE-Sephacel column (15×1.6 cm) pre-equilibrated with buffer B (buffer A without the saccharose, EGTA and protease inhibitors). The column was washed until there was no detectable absorption at 280 nm, then eluted with a linear gradient of NaCl (0-0.5 M) in buffer B. 3-ml fractions were collected and enzyme activity was determined under the conditions described hereinbelow to localize the different enzymes PDE1, PDE3, PDE4 and PDE5 which were aliquoted and frozen at −80° C. (Lugnier et al., Biochem. Phamacol., 1986, 35: 1746-1751). PDE2 was isolated from human platelets, provided by Etablissement Français du Sang-Alsace, according to Kameni Tcheudji J F et al., (J. Mol. Biol. 2001; 310: 181-791), and stored until use at −80° C. in small aliquots.
Cyclic nucleotide phosphodiesterase activity was determined by a radioenzymatic method using tritium-labelled cyclic GMP or AMP (1 μM) as substrate (Lugnier et al., 1986). ^3H-labelled adenosine or guanosine monophosphate formed by hydrolysis of the radiolabelled cyclic nucleotide was then converted to ^3H-labelled adenosine or guanosine in a second reaction with […] in excess. The nucleoside formed was separated from the nucleotides by anion exchange chromatography. Nucleoside radioactivity was determined by liquid scintillation counting. Enzymatic incubations were carried out under conditions allowing no more than 15% hydrolysis of the substrate; each point was performed in duplicate.
The concentration of substance which inhibits enzymatic activity by 50% (IC50) at 1 μM cyclic AMP was calculated by nonlinear regression from the experimental values of hydrolysis rate (Prism, GraphPad).

σ receptors = test: Isolated organ bioassay, field-stimulated vas deferens: test for agonist activity; set-up: species or system guinea pig
Experimental: Segments of guinea pig vas deferens were suspended in 20-ml organ baths containing an oxygenated (95% O2 and 5% CO2) and pre-warmed (37° C.) physiological salt solution of the following composition (in mM): NaCl 118.0, KCl 4.7, MgSO4 1.2, CaCl2 2.5, KH2PO4 1.2, NaHCO3 25.0 and glucose 11.0 (pH 7.4). Yohimbine (1 μM), (−) sulpiride (1 μM), atropine (1 μM) and naloxone (1 μM) were also present throughout the experiments to block the α2-adrenergic, dopamine D2, muscarinic and opioid receptors, respectively. The tissues were connected to force transducers for isometric tension recordings. They were stretched to a resting tension of 0.5 g, allowed to equilibrate for at least 30 min during which time they were washed repeatedly and the tension readjusted. Thereafter, they were stimulated electrically using a constant current stimulator.
The tissues were exposed to a submaximal concentration of the reference agonist (+) SKF-10047 (100 μM) to verify responsiveness and to obtain a control response. Following washings and recovery of the twitch contraction amplitude, the tissues were exposed to increasing concentrations of substance or the same agonist. The different concentrations were added cumulatively and each was left in contact with the tissues until a stable response was obtained or for a maximum of 15 min. If an agonist-like response (enhancement of twitch contractions) was obtained, the reference antagonist rimcazole (10 μM) was tested against the highest concentration of substance to confirm the involvement of the σ receptors in this response.
The parameter measured was the maximum change in the twitch contraction amplitude induced by each compound concentration. The results are expressed as a percent variation of the control twitch contraction amplitude (mean values). The effects of substance tested at 1.0 10^−6 M, 3.0 10^−6 M and 1.0 10^−5 M for agonist and antagonist activities at the σ receptors in the guinea pig vas deferens bioassay are summarized in Tables 6-7 where those of the reference compounds are also reported.

[1] = read-out: PDE2 percentage inhibition at 10 μM, Table 1
[2] = Table 1, read-out: PDE2 percentage inhibition at 10 μM

T1 sequence (O00408 whole entry): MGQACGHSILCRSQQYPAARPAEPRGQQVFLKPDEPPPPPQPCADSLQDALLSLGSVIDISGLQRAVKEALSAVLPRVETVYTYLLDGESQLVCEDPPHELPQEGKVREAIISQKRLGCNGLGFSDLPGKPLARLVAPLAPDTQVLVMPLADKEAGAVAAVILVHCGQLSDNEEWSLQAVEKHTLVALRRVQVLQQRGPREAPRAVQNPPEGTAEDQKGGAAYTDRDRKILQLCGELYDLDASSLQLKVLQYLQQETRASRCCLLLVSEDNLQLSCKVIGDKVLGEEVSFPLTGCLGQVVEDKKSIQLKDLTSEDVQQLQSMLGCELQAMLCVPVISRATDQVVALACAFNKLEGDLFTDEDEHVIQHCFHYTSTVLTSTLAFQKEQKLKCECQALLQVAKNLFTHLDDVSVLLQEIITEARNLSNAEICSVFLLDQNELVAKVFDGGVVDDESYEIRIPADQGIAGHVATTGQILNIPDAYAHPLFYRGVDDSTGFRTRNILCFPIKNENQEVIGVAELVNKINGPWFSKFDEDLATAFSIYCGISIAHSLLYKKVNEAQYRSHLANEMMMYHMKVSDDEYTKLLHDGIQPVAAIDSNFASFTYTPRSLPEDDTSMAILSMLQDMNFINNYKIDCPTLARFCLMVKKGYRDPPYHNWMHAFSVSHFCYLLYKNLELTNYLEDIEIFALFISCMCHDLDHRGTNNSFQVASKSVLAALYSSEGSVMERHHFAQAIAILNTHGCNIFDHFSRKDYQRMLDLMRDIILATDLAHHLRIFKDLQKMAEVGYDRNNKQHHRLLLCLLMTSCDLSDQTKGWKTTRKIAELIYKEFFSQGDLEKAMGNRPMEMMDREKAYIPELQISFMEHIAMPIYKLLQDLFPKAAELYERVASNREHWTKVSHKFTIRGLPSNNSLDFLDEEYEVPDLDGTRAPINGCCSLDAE

| Compound | inhibition at 10 µM (PDE2; [1]) | also measured |
| --- | --- | --- |
| COc1cc2c(c(OC)c1-c1ccccc1)C(c1cccc(C#N)c1)=NCC(=O)N2Cc1ccc(C(F)(F)F)cc1 [Compound 15, 3-[6,8-Dimethoxy-2-oxo-7-phenyl-1-(4-trifluoromethyl-benzyl)-2,3-dihydro-1H-benzo[e][1,4]diazepin-5-yl]-benzonitrile] | 9% | – |
| CCN1C(=O)CN=C(c2cccc(C#N)c2)c2c1cc(OC)c(-c1ccccc1)c2OC [Compound 11, 3-(6,8-Dimethoxy-2-oxo-7-phenyl-1-ethyl-2,3-dihydro-1H-benzo[e][1,4]diazepin-5-yl)-benzonitrile] | 10% | – |
| COc1cc2c(c(OC)c1-c1cccnc1)C(c1cccc(C#N)c1)=NCC(=O)N2 [Compound 4] | – | PDE2 percentage inhibition at 10 μM (PDE2; Table 1): 4% |
| COc1cc2c(c(OC)c1-c1ccccc1)C(c1cccc(C#CCNC(=O)OC(C)(C)C)c1)=NCC(=O)N2C [Compound 30, {3-[3-(6,8-Dimethoxy-1-methyl-2-oxo-7-phenyl-2,3-dihydro-1-benzo[e][1,4]diazepin-5-yl)-phenyl]-prop-2-ynyl}-carbamic acid tert-butyl ester] | – | PDE2 percentage inhibition at 10 μM (PDE2; Table 1): 69% |
| COc1cc2c(c(OC)c1-c1ccccc1)C(c1cccc(Br)c1)=NCC(=O)N2C [Compound 10, 5-(3-Bromo-phenyl)-6,8-dimethoxy-1-methyl-7-phenyl-1,3-dihydro-benzo[e][1,4]diazepin-2-one] | – | inhibition at 10 µM (PDE2; [2]): 86% |
| COc1cc2c(c(OC)c1-c1ccccc1)C(c1cccc(C(N)=O)c1)=NCC(=O)N2Cc1ccccc1 [Compound 24, 3-(1-Benzyl-6,8-dimethoxy-2-oxo-7-phenyl-2,3-dihydro-1H-benzo[e][1,4]diazepin-5-yl)-benzamide] | 18% | – |
| CCN1C(=O)CN=C(c2cccc(C(N)=O)c2)c2c1cc(OC)c(-c1ccccc1)c2OC [Compound 21, 3-(6,8-Dimethoxy-2-oxo-7-phenyl-1-ethyl-2,3-dihydro-1H-benzo[e][1,4]diazepin-5-yl)-benzamide] | 31% | – |
| COc1cc2c(c(OC)c1-c1ccccc1)C(c1cccc(C(N)=O)c1)=NCC(=O)N2CC1CC1 [Compound 23, 3-(1-Cyclopropylmethyl-6,8-dimethoxy-2-oxo-7-phenyl-2,3-dihydro-1H-benzo[e][1,4]diazepin-5-yl)-benzamide] | 15% | – |
| COc1cc2c(c(OC)c1-c1ccccc1)C(c1cccc(C(N)=O)c1)=NCC(=O)N2CCCc1ccccc1 [Compound 26, 3-[6,8-Dimethoxy-2-oxo-7-phenyl-1-(3-Phenyl-propyl)-2,3-dihydro-1H-benzo[e][1,4]diazepin-5-yl]-benzamide] | 5% | – |
| COc1cc2c(c(OC)c1-c1ccccc1)C(c1cccc(C#N)c1)=NCC(=O)N2Cc1ccccc1 [Compound 14, 3-(1-Benzyl-6,8-dimethoxy-2-oxo-7-phenyl-2,3-dihydro-1H-benzo[e][1,4]diazepin-5-yl)-benzonitrile] | 9% | – |
| COc1cc2c(c(OC)c1-c1ccccc1)C(c1cccc(CCCN)c1)=NCC(=O)N2C [Compound 32, 5-[3-(3-Amino-propyl)-phenyl]-6,8-dimethoxy-1-methyl-7-phenyl-1,3-dihydro-benzo[e][1,4]diazepin-2-one] | 22% | – |
| COc1cc2c(c(OC)c1-c1ccccc1)C(c1cccc(C(N)=O)c1)=NCC(=O)N2Cc1ccc(C(F)(F)F)cc1 [Compound 25, 3-[6,8-Dimethoxy-2-oxo-7-phenyl-1-(4-trifluoromethyl-benzyl)-2,3-dihydro-1H-benzo[e][1,4]diazepin-5-yl]-benzamide] | 18% | – |
| CCCN1C(=O)CN=C(c2cccc(C(N)=O)c2)c2c1cc(OC)c(-c1ccccc1)c2OC [Compound 22, 3-(6,8-Dimethoxy-2-oxo-7-phenyl-1-propyl-2,3-dihydro-1H-benzo[e][1,4]diazepin-5-yl)-benzamide] | 16% | – |
| COc1cc2c(c(OC)c1-c1ccccc1)C(c1ccccc1)=NCC(=O)N2 [Compound 3, 6,8-Dimethoxy-5,7-diphenyl-1,3-dihydro-benzo[e][1,4]diazepin-2-one] | – | inhibition at 10 µM (PDE2; [2]): 25% |
| COCC#Cc1cccc(C2=NCC(=O)N(C)c3cc(OC)c(-c4ccccc4)c(OC)c32)c1 [Compound 27, 6,8-Dimethoxy-5-[3-(3-methoxy-prop-1-ynyl)-phenyl]-1-methyl-7-phenyl-1,3-dihydro-benzo[e][1,4]diazepin-2-one] | 83% | – |
| COc1cc2c(c(OC)c1-c1ccccc1)C(c1cccc(C#N)c1)=NCC(=O)N2CC1CC1 [Compound 13, 3-(1-Cyclopropylmethyl-6,8-dimethoxy-2-oxo-7-phenyl-2,3-dihydro-1H-benzo[e][1,4]diazepin-5-yl)-benzonitrile] | 20% | – |
| COc1cc2c(c(OC)c1-c1cccnc1)C(c1cccc(C(N)=O)c1)=NCC(=O)N2 [Compound 19, 3-(6,8-Dimethoxy-2-oxo-7-pyridin-3-yl-2,3-dihydro-1H-benzo[e][1,4]diazepin-5-yl)-benzamide] | – | PDE2 percentage inhibition at 10 μM (PDE2; Table 1): 27% |
| COc1cc2c(c(OC)c1-c1ccccc1)C(c1cccc(C#CCNC(=O)OC(C)(C)C)c1)=NCC(=O)N2C [Compound 28, {3-[3-(6,8-Dimethoxy-1-methyl-2-oxo-7-phenyl-2,3-dihydro-1H-benzo[e][1,4]diazepin-5-yl)-phenyl]-prop-2-ynyl}-carbamic acid tert-butyl ester] | 43% | – |
| CCCN1C(=O)CN=C(c2cccc(C#N)c2)c2c1cc(OC)c(-c1ccccc1)c2OC [Compound 12, 3-(6,8-Dimethoxy-2-oxo-7-phenyl-1-propyl-2,3-dihydro-1H-benzo[e][1,4]diazepin-5-yl)-benzonitrile] | 17% | – |
| COc1cc2c(c(OC)c1-c1ccccc1)C(c1cccc(C#CCN)c1)=NCC(=O)N2C [Compound 31, 5-[3-(3-Amino-prop-1-ynyl)-phenyl]6,8-dimethoxy-1-methyl-7-phenyl-1,3-dihydro-benzo[e][1,4]diazepin-2-one] | 42% | – |
| (+)SKF-10,047 | – | Response to the compound, variation of twitch contraction amplitude (σ receptors; 1.0 10^−4 M, mean, n=2): +158%; Response to the compound, variation of twitch contraction amplitude (σ receptors; 1.0 10^−5 M, mean, n=2): +40%; Response to the compound, variation of twitch contraction amplitude (σ receptors; 3.0 10^−5 M, mean, n=2): +90%; Effect on twitch contraction amplitude (in words) (σ receptors; field-stimulated guinea pig vas deferens): concentration-dependent enhancement of the twitch contraction amplitude; Response to the highest concentration of the compound +Rimcazole (1.0 10^−5 M) (σ receptors; highest compound concentration plus rimcazole 1.0 10^−5 M, mean, n=2): −8% |
| COc1cc2c(c(OC)c1-c1ccccc1)C(c1cccc(C#N)c1)=NCC(=O)N2CCCc1ccccc1 [Compound 16, 3-[6,8-Dimethoxy-2-oxo-7-phenyl-1-(3-phenyl-propyl)-2,3-dihydro-1H-benzo[e][1,4]diazepin-5-yl]-benzonitrile] | 18% | – |
